Laboratory results as given in patent US20230078764A1 (Yumanity Therapeutics, Inc., priority 2019, published 2023).

Legend:
human SCD1 = target: T1, human SCD1 (Homo sapiens, UniProt O00767); assay: Growth inhibition of yeast strain expressing human SCD1 as sole desaturase (OLE1 deleted), OD600 readout; type: cell-based; details: yeast strain expressing human SCD1 as sole desaturase; growth (OD600) after 40 h at 30° C.; read-out: SCD1 IC50
T1 construct: expressed in transfected cells; host or cells: yeast strain with OLE1 deleted, plasmid-borne human SCD1 (selected in SD-Ura)
T1 sequence (O00767 1-359): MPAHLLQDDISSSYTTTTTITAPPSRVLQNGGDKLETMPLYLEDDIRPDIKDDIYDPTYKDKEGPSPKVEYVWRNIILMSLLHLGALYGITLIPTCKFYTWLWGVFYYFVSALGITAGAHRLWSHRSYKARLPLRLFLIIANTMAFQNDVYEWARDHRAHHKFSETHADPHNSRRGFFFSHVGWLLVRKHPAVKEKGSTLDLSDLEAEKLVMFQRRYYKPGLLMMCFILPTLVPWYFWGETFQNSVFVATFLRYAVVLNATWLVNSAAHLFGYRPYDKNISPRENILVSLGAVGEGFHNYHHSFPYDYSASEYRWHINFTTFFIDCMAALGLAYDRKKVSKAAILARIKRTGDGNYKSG

human SCD5 = target: T2, human SCD5 (Homo sapiens, UniProt Q86SK9); assay: Growth inhibition of yeast strain expressing human SCD5 as sole desaturase (OLE1 deleted), OD600 readout; type: cell-based; details: yeast strain expressing human SCD5 as sole desaturase; growth (OD600) after 40 h at 30° C.; read-out: SCD5 IC50
T2 construct: expressed in transfected cells; host or cells: yeast strain with OLE1 deleted, plasmid-borne human SCD5 (selected in SD-Ura)
T2 sequence (Q86SK9 1-330): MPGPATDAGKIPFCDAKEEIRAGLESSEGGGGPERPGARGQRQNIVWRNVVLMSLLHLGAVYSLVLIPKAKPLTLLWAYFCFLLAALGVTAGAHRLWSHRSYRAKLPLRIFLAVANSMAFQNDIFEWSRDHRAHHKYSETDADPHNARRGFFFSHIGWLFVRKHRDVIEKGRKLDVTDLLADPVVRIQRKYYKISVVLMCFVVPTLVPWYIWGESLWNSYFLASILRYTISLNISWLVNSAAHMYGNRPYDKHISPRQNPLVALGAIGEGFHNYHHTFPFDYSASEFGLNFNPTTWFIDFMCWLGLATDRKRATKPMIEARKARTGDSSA

Row | IC50 (human SCD1) [nM] | IC50 (human SCD5) [nM] | Compound
1 | > 45000 | 2300 | Cn1nc(C(=O)Nc2ccc(Oc3cc(F)cc(F)c3)cn2)ccc1=O [Compound 573]
2 | 370 | 10 | Cn1nc(C(=O)Nc2ccc(Cc3ccc(F)c(C(F)F)c3)cn2)ccc1=O [Compound 575]
3 | > 45000 | 400 | N#Cc1ccc(C(=O)Nc2ccc(Cc3ccc(F)c(F)c3)cn2)nn1 [Compound 576]
4 | 23000 | 6400 | Cn1nc(C(=O)Nc2ncc(Cc3ccc(F)c(F)c3)cc2F)ccc1=O [Compound 577]
5 | > 45000 | 370 | CNC(=O)c1ccnc(C(=O)Nc2ccc(Cc3cccc(F)c3)cn2)c1 [Compound 578]
6 | > 45000 | 740 | N#Cc1cncc(C(=O)Nc2ccc(Cc3cccc(F)c3)cn2)c1 [Compound 579]
7 | 19 | 10 | O=C(Nc1ccc(Cc2cc(F)cc(F)c2)cn1)c1cncc(CO)c1 [Compound 580]
8 | 680 | 62 | Cc1ncc(C(=O)Nc2ccc(Cc3cc(F)cc(F)c3)cn2)cn1 [Compound 581]
9 | 4300 | 280 | CCn1cc(C(=O)Nc2ccc(Cc3ccc(F)c(F)c3)cn2)ccc1=O [Compound 582]
10 | > 45000 | 1200 | Cn1nc(C(=O)Nc2ccc(COc3ccccc3)cn2)ccc1=O [Compound 584]
11 | > 45000 | 380 | O=C(Nc1ccc(Cc2ccc(F)c(F)c2)cn1)c1ccc(Cl)nn1 [Compound 585]
12 | > 45000 | 1300 | Cn1nc(C(=O)Nc2ccc(Oc3cc(F)cc(Cl)c3)cn2)ccc1=O [Compound 586]
13 | 17000 | 1100 | Cn1cc(C(=O)Nc2ccc(Oc3ccc(F)c(F)c3)cn2)ccc1=O [Compound 587]
14 | 6200 | 530 | Cn1cc(C(=O)Nc2ccc(Oc3cc(F)cc(F)c3)cn2)ccc1=O [Compound 588]
15 | 2300 | 150 | Cn1cc(C(=O)Nc2ccc(Oc3cc(F)cc(Cl)c3)cn2)ccc1=O [Compound 589]
16 | 30000 | 470 | Cn1ccc(C(=O)Nc2ccc(Cc3cc(F)cc(F)c3)cn2)nc1=O [Compound 590]
17 | 2200 | 18 | N#Cc1cnc(C(=O)Nc2ccc(Cc3ccc(F)c(F)c3)cn2)cn1 [Compound 591]
18 | > 45000 | 276 | CNC(=O)c1ccc(C(=O)Nc2ccc(Cc3cccc(Cl)c3)cn2)cn1 [Compound 592]
19 | > 45000 | 430 | CNC(=O)c1ccc(C(=O)Nc2ccc(Cc3ccc(F)c(F)c3)cn2)cn1 [Compound 593]
20 | 3100 | 120 | CCn1cc(C(=O)Nc2ccc(Cc3cc(F)cc(C#N)c3)cn2)cn1 [Compound 594]
21 | 35000 | 420 | Cc1ncc(C(=O)Nc2ccc(Cc3cc(F)cc(C#N)c3)cn2)cn1 [Compound 595]
22 | 1080 | 26 | COc1cc(C(=O)Nc2ccc(Cc3cc(F)cc(F)c3)cn2)nn(C)c1=O [Compound 596]
23 | 2600 | 70 | COc1cc(Cc2ccc(NC(=O)c3ccc(=O)n(C)n3)nc2)ccc1F [Compound 597]
24 | 39000 | 150 | CN1N=C(C(=O)Nc2ccc(COc3ccc(F)c(F)c3)cn2)CCC1=O [Compound 598]
25 | > 45000 | 940 | Cn1nc(C(=O)Nc2ccc(COc3ccc(F)cc3)cn2)ccc1=O [Compound 599]
26 | 28000 | 1600 | Cn1cc(C(=O)Nc2ccc(COc3ccccc3)cn2)ccc1=O [Compound 600]
27 | > 45000 | 34 | O=C(Nc1ccc(Cc2cc(F)cc(F)c2)cn1)c1cnc(Cl)c(Cl)c1 [Compound 601]

Row | IC50 (human SCD1) [nM] | IC50 (human SCD5) [nM] | Compound
28 | > 45000 | 66 | O=C(Nc1ccc(Cc2ccc(F)c(F)c2)cn1)c1cnc(Cl)cn1 [Compound 602]
29 | 10 | 10 | O=C(Nc1ccc(Cc2ccc(F)c(F)c2)cn1)c1ncc(CO)cn1 [Compound 603]
30 | 37 | 42 | CC(O)c1cnc(C(=O)Nc2ccc(Cc3ccc(F)c(F)c3)cn2)nc1 (stereo not shown) [Compound 604]
31 | 280 | 320 | O=C(Nc1ccc(Cc2cccc(Cl)c2)cn1)c1ccc([C@@H](O)CO)nc1 [Compound 605]
32 | 610 | 170 | Cc1cc(C(=O)Nc2ccc(Cc3cc(F)cc(C#N)c3)cn2)nc(C)n1 [Compound 606]
33 | > 45000 | 580 | CN1N=C(C(=O)Nc2ccc(COc3ccc(F)cc3F)cn2)CCC1=O [Compound 607]
34 | 910 | 27 | N#Cc1ncc(C(=O)Nc2ccc(Cc3cc(F)cc(F)c3)cn2)cc1Cl [Compound 608]
35 | > 45000 | 284 | Cc1cc(C(=O)Nc2ccc(Cc3cc(F)cc(C#N)c3)cn2)nn(C)c1=O [Compound 609]
36 | 3400 | 600 | Cc1cc(C(=O)Nc2ccc(Cc3ccc(F)c(C#N)c3)cn2)nn(C)c1=O [Compound 610]
37 | > 45000 | 371 | O=C(Nc1ccc(Cc2cccc(F)c2)cn1)c1ncc(Cl)cc1F [Compound 611]
38 | 4400 | 1200 | N#Cc1cc(C(=O)Nc2ccc(Cc3cc(F)cc(F)c3)cn2)cnc1C#N [Compound 612]
39 | 3400 | 600 | COc1cc(Cc2ccc(NC(=O)c3ccc(=O)n(C)c3)nc2)ccn1 [Compound 613]
40 | > 45000 | 2500 | Cn1nc(C(=O)Nc2ccc(Cc3cccc(C#N)c3F)cn2)ccc1=O [Compound 614]
41 | > 45000 | 79 | Cn1nc(C(=O)Nc2ccc(COc3ccccc3Cl)cn2)ccc1=O [Compound 615]
42 | 522 | 10 | Cc1cc(C(=O)Nc2ccc(Cc3cc(F)cc(F)c3)cn2)cnc1C#N [Compound 616]
43 | 220 | 39 | Cn1cc(C(=O)Nc2ccc(Cc3ccc(Cl)c(C#N)c3)cn2)ccc1=O [Compound 617]
44 | 510 | 22 | Cn1cc(C(=O)Nc2ccc(Cc3cc(Cl)cc(C#N)c3)cn2)ccc1=O [Compound 618]
45 | 28000 | 150 | Cc1cc(C(=O)Nc2ccc(Cc3cc(F)cc(F)c3)cn2)cnc1Cl [Compound 619]
46 | 200 | 200 | Cn1ccc(C(=O)Nc2ccc(Cc3cc(F)cc(C#N)c3)cn2)cc1=O [Compound 620]
47 | 35 | 25 | O=C(Nc1ccc(Cc2ccc(F)c(F)c2)cn1)c1ccnnc1 [Compound 621]
48 | 23 | 16 | O=C(Nc1ccc(Cc2cc(F)cc(F)c2)cn1)c1ccnnc1 [Compound 622]
49 | 232 | 19 | Cc1cc(C(=O)Nc2ccc(Cc3cccc(F)c3)cn2)cn(C)c1=O [Compound 623]
50 | > 45000 | 54 | Cc1cc(C(=O)Nc2ccc(Cc3cccc(F)c3)cn2)c(=O)n(C)n1 [Compound 624]
51 | 4800 | 310 | Cn1cc(NC(=O)c2ncc(Cc3ccc(F)c(F)c3)cc2F)ccc1=O [Compound 625]
52 | > 45000 | 14 | Cn1nc(C(=O)Nc2ccc(Cc3cc(Cl)cc(C#N)c3)cn2)ccc1=O [Compound 626]
53 | 327 | 10 | N#Cc1cnc(NC(=O)c2ccc(Cc3cccc(F)c3)cn2)nc1 [Compound 627]
